Assay results: patent US11491185B2, “Intra-mammary teat sealant formulation and method of using same to reduce or eliminate visual defects in aged cheeses” (Wisconsin Alumni Research Foundation, priority 2006, dated 2022)

Assay: Laboratory-induced black spot defect: cheese with ITS components exposed to aged cheese volatiles or hydrogen sulfide gas
Format: physicochemical
Details: blended in cheese, exposed to authentic cheese volatiles or H2S gas
Method: FIGS. 4A and 4B are images of laboratory-induced black spot defects. In FIG. 4A, the various components of “ORBESEAL”-brand intra-mammary teat sealant (ITS) were blended with cheese and each spot was photographed immediately. […] Sites 4 and 5 contain bismuth subnitrate and the intact “ORBESEAL”-brand ITS formulation, respectively.
To confirm the reactivity of bismuth subnitrate as a reactant in forming bismuth Ill sulfide nanorods, additional assays were conducted to see if BSD could be purposefully recreated in the lab. In short, cheeses were manufactured with known amounts of ITS components and subjected to either the authentic volatile gasses produced by maturing cheeses or exposed directly to the hypothesized bismuth subnitrate co-reactant, hydrogen sulfide gas. […] No other ITS component formed black spots when so exposed. Furthermore, the susceptible sites formed identically black pigmentation when exposed to either authentic cheese volatiles or to hydrogen sulfide gas, thus confirming that hydrogen sulfide gas was the suspected co-reactant.

Compound: O=[N+]([O-])[O-].O=[N+]([O-])[O-].O=[N+]([O-])[O-].O=[N+]([O-])[O-].[Bi+3].[Bi+3].[Bi+3].[Bi+3].[Bi+3].[O-2].[OH-].[OH-].[OH-].[OH-].[OH-].[OH-].[OH-].[OH-].[OH-] [bismuth subnitrate]
- Formation of black pigmentation (black spots) with nanorod structures: formed identical black pigmentation
